Assay in all cases: Kinobeads competition binding, HeLa Placenta lysate mix
Holding throughout (design): endogenous in cells
Settings in all cases: 10 μM free compound

The target of one assay is CDC2 (Homo sapiens, UniProt P06493). The protocol:
(§1) To one aliquot of cell lysate 10 μM of the free compound (FIG. 3, CZC31326) was added and allowed to bind to proteins in the lysate. Then the affinity matrix with the immobilized compound was added to capture proteins that were not interacting with the previously added free compound. Beads were separated from the lysate and bead bound proteins were eluted in SDS sample buffer and subsequently separated by SDS-Polyacrylamide gel electrophoresis (FIG. 10). Suitable gel bands were cut out and subjected to in-gel proteolytic digestion with trypsin. The second lysate aliquot was processed identically, however no free compound was added (DMSO solvent control). Peptides originating from samples 1 and 2 were labeled with iTRAQ reagents (iTRAQ 114 and iTRAQ 117) and the combined samples were analyzed with a nano-flow liquid chromatography system coupled online to a tandem mass spectrometer (LC-MS/MS) experiment followed by iTRAQ reporter ion quantification in the MS/MS spectra as described in Example 2.

The next assay has as its target Erk1 (Homo sapiens, UniProt P27361). The method, then: as §1
The target in a further assay is LYN (Homo sapiens, UniProt P07948). The protocol:
as §1

In a further assay the target is T1, PIP5K2A (Homo sapiens, UniProt P48426).
T1 sequence (P48426 1-406): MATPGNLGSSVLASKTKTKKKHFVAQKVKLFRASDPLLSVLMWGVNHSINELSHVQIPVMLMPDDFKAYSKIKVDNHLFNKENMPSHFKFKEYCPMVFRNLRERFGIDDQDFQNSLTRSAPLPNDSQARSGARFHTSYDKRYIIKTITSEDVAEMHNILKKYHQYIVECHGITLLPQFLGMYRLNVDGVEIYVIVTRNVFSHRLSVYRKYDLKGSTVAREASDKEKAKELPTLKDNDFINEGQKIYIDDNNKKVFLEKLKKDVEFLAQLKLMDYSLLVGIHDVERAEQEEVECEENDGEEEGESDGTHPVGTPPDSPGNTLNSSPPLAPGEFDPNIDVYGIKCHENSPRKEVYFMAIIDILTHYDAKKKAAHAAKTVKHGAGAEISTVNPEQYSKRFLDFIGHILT
The method, then:
as §1

The target in a further assay is T2, PIP5K2C (Homo sapiens, UniProt Q8TBX8).
T2 sequence (Q8TBX8 1-421): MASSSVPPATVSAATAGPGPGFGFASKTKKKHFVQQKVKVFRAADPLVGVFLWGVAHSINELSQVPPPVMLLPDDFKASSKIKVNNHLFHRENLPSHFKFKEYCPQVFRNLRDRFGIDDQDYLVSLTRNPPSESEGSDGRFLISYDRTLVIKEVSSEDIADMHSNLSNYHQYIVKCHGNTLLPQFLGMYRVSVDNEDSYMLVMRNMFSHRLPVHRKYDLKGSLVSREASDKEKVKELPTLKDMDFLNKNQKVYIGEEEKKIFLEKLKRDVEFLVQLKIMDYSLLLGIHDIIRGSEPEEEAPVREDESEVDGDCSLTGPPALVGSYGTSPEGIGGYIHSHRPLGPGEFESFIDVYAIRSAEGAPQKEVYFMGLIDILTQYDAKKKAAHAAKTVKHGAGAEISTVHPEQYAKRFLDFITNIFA
The method, then: as §1

Another assay has as its target T3, PKD3 (Homo sapiens, UniProt O94806).
T3 sequence (O94806 1-890): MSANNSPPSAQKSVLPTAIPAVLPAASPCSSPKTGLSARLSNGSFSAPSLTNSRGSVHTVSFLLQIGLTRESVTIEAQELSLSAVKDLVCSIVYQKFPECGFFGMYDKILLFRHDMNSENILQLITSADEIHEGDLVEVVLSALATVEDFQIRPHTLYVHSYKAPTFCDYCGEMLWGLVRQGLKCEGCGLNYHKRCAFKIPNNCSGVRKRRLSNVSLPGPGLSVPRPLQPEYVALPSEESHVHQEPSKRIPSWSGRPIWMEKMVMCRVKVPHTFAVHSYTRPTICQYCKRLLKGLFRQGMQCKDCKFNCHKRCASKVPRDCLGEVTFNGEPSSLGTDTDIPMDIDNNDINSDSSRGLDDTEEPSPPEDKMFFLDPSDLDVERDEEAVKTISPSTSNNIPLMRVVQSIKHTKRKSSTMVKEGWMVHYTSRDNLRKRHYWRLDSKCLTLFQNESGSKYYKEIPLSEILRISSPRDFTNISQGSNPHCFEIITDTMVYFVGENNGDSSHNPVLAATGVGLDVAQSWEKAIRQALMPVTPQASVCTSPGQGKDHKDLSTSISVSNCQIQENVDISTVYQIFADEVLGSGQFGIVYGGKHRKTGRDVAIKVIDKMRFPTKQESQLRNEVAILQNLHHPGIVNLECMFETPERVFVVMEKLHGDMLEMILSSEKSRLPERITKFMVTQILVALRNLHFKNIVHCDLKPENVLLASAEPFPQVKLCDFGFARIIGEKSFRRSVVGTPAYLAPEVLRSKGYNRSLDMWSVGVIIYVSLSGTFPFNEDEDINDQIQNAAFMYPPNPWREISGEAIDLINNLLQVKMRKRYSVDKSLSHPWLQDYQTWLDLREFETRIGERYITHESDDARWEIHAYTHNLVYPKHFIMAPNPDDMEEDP
The method, then:
as §1

Another assay has as its target PKN1 (Homo sapiens, UniProt Q16512). The method, then:
as §1

In a further assay the target is RIPK2 (Homo sapiens, UniProt O43353). The protocol: as §1
RIPK2, sequence (O43353 whole entry): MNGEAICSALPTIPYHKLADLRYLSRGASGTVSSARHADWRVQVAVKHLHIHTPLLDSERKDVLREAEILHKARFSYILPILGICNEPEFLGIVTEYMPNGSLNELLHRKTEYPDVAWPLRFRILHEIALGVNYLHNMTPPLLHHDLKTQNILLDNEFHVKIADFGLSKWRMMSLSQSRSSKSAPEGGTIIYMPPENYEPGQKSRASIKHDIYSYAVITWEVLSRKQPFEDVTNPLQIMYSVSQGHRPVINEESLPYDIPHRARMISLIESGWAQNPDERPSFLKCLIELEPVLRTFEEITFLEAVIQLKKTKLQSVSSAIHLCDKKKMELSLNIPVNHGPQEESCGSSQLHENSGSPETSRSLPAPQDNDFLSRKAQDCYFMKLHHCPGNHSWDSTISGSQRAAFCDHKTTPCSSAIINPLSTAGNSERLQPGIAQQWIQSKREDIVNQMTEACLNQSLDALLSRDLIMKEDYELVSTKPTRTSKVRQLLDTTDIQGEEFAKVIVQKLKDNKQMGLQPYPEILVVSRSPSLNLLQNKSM

This note sets out measurements from US20120270237A9, “METHODS FOR THE IDENTIFICATION OF KINASE INTERACTING MOLECULES AND FOR THE PURIFICATION OF KINASE PROTEINS” (Cellzone AG, priority 2009, published 2012).

Erk1, sequence (P27361 whole entry): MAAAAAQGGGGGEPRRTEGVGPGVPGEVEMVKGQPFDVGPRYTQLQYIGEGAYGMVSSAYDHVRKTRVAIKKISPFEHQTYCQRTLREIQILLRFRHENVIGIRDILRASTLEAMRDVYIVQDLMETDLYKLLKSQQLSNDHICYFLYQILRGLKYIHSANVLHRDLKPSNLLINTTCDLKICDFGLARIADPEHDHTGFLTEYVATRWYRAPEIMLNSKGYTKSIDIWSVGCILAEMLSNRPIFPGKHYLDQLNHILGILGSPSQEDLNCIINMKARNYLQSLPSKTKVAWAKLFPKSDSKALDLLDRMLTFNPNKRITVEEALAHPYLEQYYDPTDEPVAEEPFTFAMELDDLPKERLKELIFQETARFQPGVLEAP
PKN1, sequence (Q16512 whole entry): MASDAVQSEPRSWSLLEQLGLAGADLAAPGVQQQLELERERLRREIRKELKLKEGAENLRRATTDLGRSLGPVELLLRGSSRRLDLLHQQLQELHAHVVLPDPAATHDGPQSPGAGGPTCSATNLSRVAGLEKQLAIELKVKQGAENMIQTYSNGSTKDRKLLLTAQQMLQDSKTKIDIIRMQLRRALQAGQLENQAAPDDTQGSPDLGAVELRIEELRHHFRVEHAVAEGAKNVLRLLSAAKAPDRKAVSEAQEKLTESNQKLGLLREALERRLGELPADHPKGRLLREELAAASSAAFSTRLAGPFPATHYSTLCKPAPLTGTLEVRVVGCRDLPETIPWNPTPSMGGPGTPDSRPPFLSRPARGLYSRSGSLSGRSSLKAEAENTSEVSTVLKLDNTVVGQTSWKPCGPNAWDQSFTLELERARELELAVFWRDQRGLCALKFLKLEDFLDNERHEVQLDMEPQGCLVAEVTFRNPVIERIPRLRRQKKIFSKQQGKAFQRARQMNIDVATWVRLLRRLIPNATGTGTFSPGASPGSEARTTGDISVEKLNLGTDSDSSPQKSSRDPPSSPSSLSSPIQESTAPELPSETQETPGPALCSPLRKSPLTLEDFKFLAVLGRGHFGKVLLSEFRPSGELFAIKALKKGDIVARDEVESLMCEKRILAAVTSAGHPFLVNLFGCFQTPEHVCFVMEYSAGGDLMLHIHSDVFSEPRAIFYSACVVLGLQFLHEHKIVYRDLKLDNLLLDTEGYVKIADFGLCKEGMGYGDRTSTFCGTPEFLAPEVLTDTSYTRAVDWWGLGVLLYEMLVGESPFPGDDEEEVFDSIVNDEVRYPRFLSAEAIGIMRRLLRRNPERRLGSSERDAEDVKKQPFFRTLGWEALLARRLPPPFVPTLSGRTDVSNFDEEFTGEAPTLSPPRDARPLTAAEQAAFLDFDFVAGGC
CDC2, sequence (P06493 whole entry): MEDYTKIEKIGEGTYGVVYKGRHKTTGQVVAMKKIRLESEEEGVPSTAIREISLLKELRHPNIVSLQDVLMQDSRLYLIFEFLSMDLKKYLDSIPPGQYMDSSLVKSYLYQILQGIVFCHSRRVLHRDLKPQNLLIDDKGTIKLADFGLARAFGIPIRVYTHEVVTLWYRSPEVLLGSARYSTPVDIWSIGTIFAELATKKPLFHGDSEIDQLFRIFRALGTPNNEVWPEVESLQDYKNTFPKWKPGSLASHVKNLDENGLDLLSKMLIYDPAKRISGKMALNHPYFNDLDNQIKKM
LYN, sequence (P07948 whole entry): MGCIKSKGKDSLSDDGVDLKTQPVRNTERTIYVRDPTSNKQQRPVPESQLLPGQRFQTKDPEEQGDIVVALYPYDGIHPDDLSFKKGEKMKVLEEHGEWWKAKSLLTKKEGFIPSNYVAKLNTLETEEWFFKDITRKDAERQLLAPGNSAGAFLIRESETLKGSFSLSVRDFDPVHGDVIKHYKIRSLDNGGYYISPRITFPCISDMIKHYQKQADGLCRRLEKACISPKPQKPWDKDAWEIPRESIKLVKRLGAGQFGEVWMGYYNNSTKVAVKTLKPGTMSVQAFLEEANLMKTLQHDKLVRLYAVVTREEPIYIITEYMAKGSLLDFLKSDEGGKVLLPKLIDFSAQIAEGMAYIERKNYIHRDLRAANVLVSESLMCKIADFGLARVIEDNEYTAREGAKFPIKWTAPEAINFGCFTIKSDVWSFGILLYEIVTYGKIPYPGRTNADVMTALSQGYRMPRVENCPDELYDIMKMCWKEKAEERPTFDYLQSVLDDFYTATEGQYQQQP

By inhibition is commonly meant the relative decrease from the control value, in per cent. Lower therefore signals a response near the control. For the compound `CS(=O)(=O)Nc1ccccc1Nc1nc(Nc2cccc(OCCN)c2)ncc1Cl` [CZC31326, N-(2-(2-(3-(2-aminoethoxy)phenylamino)-5-chloropyrimidin-4-ylamino)phenyl)methanesulfonamide], the inhibition at 10 µM at CDC2 was found to be 93.4%; at Erk1 it was 77.8%; at LYN it was 76.1%; on PIP5K2A it was 95%; on PIP5K2C, 95.4%; at PKD3, 95.7%. For the same compound, the inhibition at 10 µM on PKN1 is 93.7%; on RIPK2, 92.2%.
